Data published in patent publication US20120070442A1, “METHODS AND COMPOSITIONS FOR TREATING CANCER” (The Regents of the University of Colorado, a body corporate, priority 2007, published 2012).

System: NSCLC
Experiment: Clinical response and survival of NSCLC patients treated with gefitinib
Type: in vivo, human
Source text: After appropriate approval from the institution and written informed consent for comprehensive use of molecular and pathologic analysis was received from each patient, NSCLC specimens were formalin-fixed, paraffin-embedded at Tokyo Medical University, Tokyo, Japan. Information on gender, age, histology, cigarette use, response, and survival was obtained for each patient. Tumor specimens were microdissected under stereoscopic microscopy (LEICA MZ12, Leica Microsystems, Wetzlar, Germany). DNA was extracted from tumor cells with the DNeasy Tissue Kit (Qiagen, Valencia, Calif.).
For all tests, a level of P<0.05 was considered statistically significant. Fisher's exact test for count data was used to analyze proportions among the factors studied. […] In this case, response or stable disease was considered a positive outcome while progressive disease was considered negative. The Kaplan-Meier method was used to estimate the probability of survival as a function of time. […] Significant differences between survival curves were analyzed using the log-rank test. Multivariate analysis of the relative importance of the factors to survival was performed using the Cox proportional-hazards method.
Each sample was analyzed in triplicate on a quantitation run. The ratio of miR-128b to CFTR DNA copies was determined. […]

`COc1cc2ncnc(Nc3ccc(F)c(Cl)c3)c2cc1OCCCN1CCOCC1` [Gefitinib, N-(3-chloro-4-fluoro-phenyl)-7-methoxy-6-(3-morpholin-4-ylpropoxy)quinazolin-4-amine] was tested, and the “survival after initiation of gefitinib therapy” value (NSCLC patients with deletion of miR-128b by DNA copy) was 23.3 months and the “survival after initiation of gefitinib therapy” value (NSCLC patients without deletion of miR-128b by DNA copy) was 10.7 months.
